Patent US10927075B2, “Compositions and methods relating to the treatment of cancer, autoimmune disease, and neurodegenerative disease” (THE JACKSON LABORATORY, priority 2014, dated 2021)
“Also recorded” adds a separate entry of the source.

Tests used:
primary B-cells (AID+) = assay: Dose response in primary B-cells (AID+); type: cell-based; conditions: FIG. 10
Procedure: Dose responses for C-1523 (blue) and C-1523-1a (red) in primary B-cells (AID+) was determined (FIG. 10).

CH12-F3 cells = assay: Radiosensitivity (viability after ionizing irradiation); type: cell-based, mouse; conditions: 50 nM, 100 nM, or 150 nM; 0 or 2.5Gy
Procedure: FIG. 13A depicts a viability analysis of C-1523-treated CH12-F3 cells 24 h after 0 or 2.5 Gy IR. Data are normalized to the fraction of cells for each IR dose that received DMSO vehicle only; error bars represent the SEM for three independent experiments. FIG. 13B depicts detection of RAD51 by immunofluorescence in primary mouse B cells 24 h after 0 or 2.5 Gy IR and treatment with C-1523 (100 nM) or vehicle. RAD51 staining is in red, nuclear DNA (DAPI-stained) is in blue. Scale bar: 10 μM. FIG. 13C depicts the quantification of cells with nuclear RAD51 (RAD51+) from FIG. 13B. Error bars represent the SEM for three independent experiments. FIG. 13D depicts the quantitation of RAD51 expression in nuclear and cytoplasmic fractions as determined by Western Blot. Values represent the average of three independent experiments and error bars are the SEM. FIG. 13E depicts the immunofluorescent detection of NF-κB localization in primary murine B cells. […] FIG. 13F depicts the quantitation of nuclear NF-κB staining from FIG. 13E. […]
C-1523 disrupts RAD51 nucleocytoplasmic distribution and damage induced relocalization. To assess the DNA repair inhibitory activity of C-1523, radiosensitivity was measured in the mouse leukemia cell line, CH12-F3, with or without C-1523. […] Cells were allowed to recover in culture in the presence of C-1523 (or vehicle control) and viable cells were quantified. […]

[1] = tested on: primary, activated WT versus AID−/− cells; assay: RNASeq and Ingenuity Pathways Analysis; type: cell-based, mouse; conditions: 100 nM, 60 hours after activation
Procedure: FIG. 17A depicts a schematic for the fold-change (FC) analysis performed on RNASeq data from the indicated treatment groups. RNA was prepared from cells 60 hours after activation (αCD40 and IL-4) and treatment with DMSO or 100 nM C-1523. Pathway analysis was performed by Ingenuity Pathway Analysis (IPA). FIGS. 17B-17D depict the top 10 pathways for the Unique to FC1 (FIG. 17B) and FC2 (FIG. 17C) analysis and all pathways for the FC1>FC2 (DOWN) and F2>FC1 (UP) analysis (FIG. 17D). Within each bar (in white), is the ratio of genes from that pathway implicated by IPA. The dashed line indicates the 0.05 significance threshold for significant (bars crossing it) vs non-significant pathways. The mechanism of cell death is non-apoptotic and is via mitotic catastrophe.
C-1523 induces non-apoptotic cell death via non-apoptotic mitotic catastrophe. The surprising lack of apoptotic cell death induced by C-1523 prompted us to evaluate gene expression signatures to identify other potential cell death pathways. […]
RNASeq Analysis. […] The filtered and trimmed reads were then aligned to mm10 using tophat (v2.0.7). The aligned bam file was then passed through Cufflinks (v2.0.2) and reads per gene are counted using htseq-count. edgeR. […]

AID+/+ or AID−/− B-cells = assay: Cell cycle analysis by propidium iodide staining and flow cytometry; type: cell-based; conditions: 100 nM, up to 96 hours
Procedure: (§1) AID+/+ or AID−/− B-cells were cultured with 100 nM and cell cycle profiles were determined by propidium iodide staining and flow cyotmetry at intervals up to 96 hours. Non-activated (CD40) cells were used as a negative control; activated cells treated with the microtuble poison colcemid (ACT+colcemid) were used as a positive control.
as §1, with “control. Nuclei fragmentation analysis of primary, AID expressing B-cells treated with 100 nM C-1523 was conducted (FIG. 22).” for “control.”

CC(=O)Nc1ccc(/C=C/c2ccc(NC(=S)NC(C)C)cc2S(=O)(=O)O)c(S(=O)(=O)O)c1 [C-1523, (E)-5-acetamido-2-(4-(3-isopropylthioureido)-2-sulfonatostyryl)benzenesulfonate] was tested, and the “concentration above which dose response is inverted” value (primary B-cells (AID+)) was “above 100 nM”, the “sensitivity to ionizing irradiation” value (CH12-F3 cells) was “sensitivity to ionizing irradiation at every concentration tested” and the “most significantly altered pathways (IPA)” value [1] was “did not identify any previously annotated cell death pathways”. The “effect on cell cycle” value (AID+/+ or AID−/− B-cells) was “minimal effect on cell cycle; also recorded: minimal differences”.
